This note sets out measurements from ChEMBL document CHEMBL4680188 (Eur J Med Chem, 2020).

Data set [1] has as its target T1, Melatonin receptor type 1A (Homo sapiens, UniProt P48039). The experiment in a line: Displacement of 2-[125l]-lodomelatonin from human MT1 expressed in CHO cells incubated for 120 mins by radioligand binding assay. It is filed as cell-based.
In data set [2] the target is T2, 5-hydroxytryptamine receptor 2C (Homo sapiens) (UniProt P28335).
T2 sequence (whole entry): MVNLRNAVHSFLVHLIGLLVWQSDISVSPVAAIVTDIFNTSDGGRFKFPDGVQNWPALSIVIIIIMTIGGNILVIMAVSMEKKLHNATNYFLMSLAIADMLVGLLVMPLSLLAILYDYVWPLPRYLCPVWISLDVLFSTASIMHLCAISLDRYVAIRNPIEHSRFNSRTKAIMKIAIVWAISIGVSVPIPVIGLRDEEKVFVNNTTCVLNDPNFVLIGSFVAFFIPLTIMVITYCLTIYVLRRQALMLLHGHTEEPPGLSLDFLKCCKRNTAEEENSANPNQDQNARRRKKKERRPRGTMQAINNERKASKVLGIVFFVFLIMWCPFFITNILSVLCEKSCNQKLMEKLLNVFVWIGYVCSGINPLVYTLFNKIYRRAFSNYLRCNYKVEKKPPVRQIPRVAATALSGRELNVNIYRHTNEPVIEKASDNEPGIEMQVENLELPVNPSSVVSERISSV
In words: Binding affinity to human 5HT2C expressed in CHO cells. The format is cell-based.

The target in data set [3] is T3, Melatonin receptor type 1B (Homo sapiens, UniProt P49286).
T3 sequence (P49286 whole entry): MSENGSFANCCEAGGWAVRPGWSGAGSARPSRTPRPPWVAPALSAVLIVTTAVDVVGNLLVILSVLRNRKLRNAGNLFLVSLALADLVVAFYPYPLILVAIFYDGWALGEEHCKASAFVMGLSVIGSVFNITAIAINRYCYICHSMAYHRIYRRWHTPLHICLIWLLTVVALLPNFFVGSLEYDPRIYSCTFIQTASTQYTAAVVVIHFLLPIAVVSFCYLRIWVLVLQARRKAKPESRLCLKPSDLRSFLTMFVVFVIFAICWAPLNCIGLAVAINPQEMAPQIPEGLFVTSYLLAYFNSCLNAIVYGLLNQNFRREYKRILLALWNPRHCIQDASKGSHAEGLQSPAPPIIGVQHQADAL
In words: Displacement of 2-[125l]-lodomelatonin from human MT2 expressed in CHO cells incubated for 120 mins by radioligand binding assay. The format is cell-based.

Data set [4] addresses T3, Melatonin receptor type 1B. The experiment in a line: Agonist activity at human MT2 expressed in CHO cell membrane incubated for 1 hr by [35S]GTPgammaS binding assay. The format is functional, cell membranes.
Data set [5] has as its target T1, Melatonin receptor type 1A. In words: Agonist activity at human MT1 expressed in CHO cell membrane incubated for 1 hr by [35S]GTPgammaS binding assay. The format is functional, cell membranes. For orientation: GTPγS resists hydrolysis and so accumulates on activated G proteins.
Data set [6] is described as follows: Oral bioavailability in human. The format is ADME, organism-based. The conditions noted are these: in vivo.
The nature of data set [7]: Oral bioavailability in rat. It is filed as ADME, organism-based. The conditions noted are these: in vivo.
The nature of data set [8]: Permeability in human Caco-2 cells. The format is ADME, cell-based. For orientation: Caco-2 monolayers are a common model of the intestinal barrier.

Activity calls are given as the source filed them. The rule behind the calls is not given here.

T1 sequence (P48039 whole entry): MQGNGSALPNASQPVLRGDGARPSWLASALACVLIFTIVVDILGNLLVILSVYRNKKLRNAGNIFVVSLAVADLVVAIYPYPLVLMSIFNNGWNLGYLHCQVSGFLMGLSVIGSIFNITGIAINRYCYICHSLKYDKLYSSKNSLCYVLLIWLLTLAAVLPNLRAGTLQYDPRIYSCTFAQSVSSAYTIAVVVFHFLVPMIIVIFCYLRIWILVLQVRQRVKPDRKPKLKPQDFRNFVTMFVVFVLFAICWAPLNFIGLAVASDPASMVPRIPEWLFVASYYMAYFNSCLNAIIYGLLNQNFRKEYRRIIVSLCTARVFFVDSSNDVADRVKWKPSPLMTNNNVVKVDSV

As to `COc1ccc2ncnc(CCNC(=O)C3CC3)c2c1`, the Ki was found to be 549 nM in data set [1] and 398 nM in data set [3]. Moreover, the result in data set [2] was inactive.

With `COc1cccc(-c2nc(CCNC(C)=O)c3cc(OC)ccc3n2)c1`, the Ki in data set [1] was 500 nM; in data set [3], 46 nM. For the same compound, the EC50 in data set [4] was determined as 543 nM; in data set [5], 321 nM. Moreover, the result in data set [2] was inactive.

`CCNC(=O)N1CCN(c2ncnc3ccc(OC)cc23)CC1`: the Ki in data set [1] is > 10000 nM; in data set [3], 2800 nM. The outcome in data set [2] was inactive.

Turning to `CCCC(=O)NCCc1nncc2ccc(OC)cc12`, the Ki was determined as 1140 nM in data set [1] and 108 nM in data set [3]. Moreover, the EC50 in data set [4] was 89 nM; in data set [5] it was > 10000 nM. The result in data set [2] was inactive. The results for the bioavailability in data set [6] and in data set [7] were 36% and 33%, respectively. Besides, the permeability in data set [8] is recorded as 100%.

In the case of `COc1ccc2ncnc(N3CCN(C(=O)C4CC4)CC3)c2c1`, the results for the Ki in data set [1] and in data set [3] were > 10000 nM and 3300 nM, respectively. Besides, in data set [2], the outcome was inactive.

Take `COc1ccc2cnnc(CCNC(C)=O)c2c1`: the Ki amounted to 2110 nM in data set [1] and 799 nM in data set [3]. Moreover, the EC50 was 428 nM in data set [4] and > 10000 nM in data set [5]. Further, in data set [2], the result was inactive. The permeability in data set [8] is 2%.

With `COc1ccc2ncnc(NCCNC(C)=O)c2c1`, the Ki in data set [1] and in data set [3] was > 10000 nM in each case. Also, the result in data set [2] was inactive.

Consider `CCCC(=O)NCCc1ncnc2ccc(OC)cc12`, for which the Ki in data set [1] stood at 320 nM; in data set [3], 41 nM. Moreover, the 50% effective concentration (EC50) in data set [4] is 219 nM; in data set [5] it was 652 nM. For the same compound, the outcome in data set [2] was inactive. The bioavailability in data set [6] was 36%; in data set [7], 69%.

As to `CCC(=O)NCCc1nncc2ccc(OC)cc12`, the results for the Ki in data set [1] and in data set [3] were 1470 nM and 414 nM, respectively. Also, the EC50 is 327 nM in data set [4] and > 10000 nM in data set [5]. Also, the outcome in data set [2] was inactive. Further, the bioavailability stood at 46% in data set [6] and 54% in data set [7]. Further, the permeability in data set [8] was determined as 100%.

On to `COc1ccc2cccc(CCNC(C)=O)c2c1` [AGOMELATINE], for which the bioavailability in data set [6] was found to be 11%; in data set [7], 13%. Further, the permeability in data set [8] was found to be 100%.

`CCC(=O)NCCc1ncnc2ccc(OC)cc12`: the Ki in data set [1] was 210 nM; in data set [3] it was 41.1 nM. For the same compound, the EC50 stood at 238 nM in data set [4] and 432 nM in data set [5]. Also, the result in data set [2] was inactive.

As to `COc1ccc2nc(-c3ccccc3)nc(CCNC(C)=O)c2c1`, the Ki in data set [1] was determined as 896 nM; in data set [3], 15.6 nM. Further, the values for the EC50 in data set [4] and in data set [5] were 237 nM and > 10000 nM, respectively. For the same compound, the outcome in data set [2] was inactive. Moreover, the bioavailability in data set [6] was 7%; in data set [7] it was 2%. In data set [8], this compound registered a permeability of 100%.

Consider `COc1ccc2cnnc(CCNC(=O)C3CC3)c2c1`, for which the Ki in data set [1] is 3020 nM; in data set [3], 1370 nM. The 50% effective concentration (EC50) is 1250 nM in data set [4] and > 10000 nM in data set [5]. The outcome in data set [2] was inactive.

For `COc1ccc2ncnc(CCNC(C)=O)c2c1`, the Ki in data set [1] was 230 nM; in data set [3], 115 nM. Also, the results for the EC50 in data set [4] and in data set [5] were 835 nM and 2600 nM, respectively. The outcome in data set [2] was inactive. Moreover, the bioavailability in data set [6] worked out at 97%; in data set [7], 92%. In data set [8], this compound showed a permeability of 100%.

As usually defined, the Ki is the equilibrium dissociation constant of an inhibitor or competing ligand from its target. Higher therefore signals weaker binding. For orientation: EC50 means the concentration at which the effect is half-maximal. A high value points to a need for much substance. The term bioavailability denotes the share of a dose that reaches the circulation, judged against a reference dose that is usually intravenous. High values mean good availability, low ones poor availability.
